The source of these data is ChEMBL document CHEMBL1201862, “PubChem BioAssay data set” (2004).

The target in the assay is T1, Aminopeptidase N (Plasmodium falciparum FcB1/Columbia, UniProt O96935).
T1 sequence (O96935 whole entry): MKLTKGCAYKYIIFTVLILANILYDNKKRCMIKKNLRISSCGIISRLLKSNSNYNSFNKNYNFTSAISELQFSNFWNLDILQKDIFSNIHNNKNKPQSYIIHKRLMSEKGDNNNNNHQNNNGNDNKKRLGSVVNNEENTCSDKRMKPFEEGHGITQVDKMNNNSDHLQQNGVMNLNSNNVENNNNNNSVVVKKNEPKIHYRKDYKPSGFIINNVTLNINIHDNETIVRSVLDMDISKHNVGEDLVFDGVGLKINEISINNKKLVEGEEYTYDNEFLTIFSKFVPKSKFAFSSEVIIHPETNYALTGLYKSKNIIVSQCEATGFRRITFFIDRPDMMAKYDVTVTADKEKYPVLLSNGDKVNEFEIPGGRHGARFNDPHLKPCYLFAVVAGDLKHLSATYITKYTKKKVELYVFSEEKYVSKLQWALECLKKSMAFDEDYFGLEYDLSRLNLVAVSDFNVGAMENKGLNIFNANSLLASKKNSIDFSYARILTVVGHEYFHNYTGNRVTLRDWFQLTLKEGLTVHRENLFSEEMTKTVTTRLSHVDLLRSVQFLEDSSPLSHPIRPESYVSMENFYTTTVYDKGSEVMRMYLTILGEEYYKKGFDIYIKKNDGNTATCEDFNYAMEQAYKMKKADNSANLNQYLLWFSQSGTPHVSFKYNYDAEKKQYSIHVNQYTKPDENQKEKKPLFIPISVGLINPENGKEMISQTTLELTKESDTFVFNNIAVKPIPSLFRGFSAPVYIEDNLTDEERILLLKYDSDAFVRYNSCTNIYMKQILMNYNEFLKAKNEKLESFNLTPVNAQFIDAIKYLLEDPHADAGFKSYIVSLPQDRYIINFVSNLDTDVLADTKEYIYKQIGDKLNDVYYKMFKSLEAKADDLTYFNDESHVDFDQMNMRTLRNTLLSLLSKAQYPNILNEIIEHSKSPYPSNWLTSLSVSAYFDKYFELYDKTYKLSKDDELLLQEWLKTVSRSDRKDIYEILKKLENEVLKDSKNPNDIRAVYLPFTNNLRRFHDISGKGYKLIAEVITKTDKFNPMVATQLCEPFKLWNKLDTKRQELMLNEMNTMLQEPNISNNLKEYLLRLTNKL
Description: malaria alanyl aminopeptidase activity blockers – biochemical, fluorogenic H-Leu-NHMec substrate, 1536-well (AID 1445). On the set-up: species or system Plasmodium falciparum 3D7, 3D7.

The source made the active and inactive calls. No rule for the calls is given here.

Regarding `CC1CC(=O)c2c(cc3c(-c4c(O)cc(O)c5c(O)c6c(cc45)OC(C)CC6=O)c(O)cc(O)c3c2O)O1` (stereo unspecified) [CEPHALOCHROMIN], the IC50 is 64.9 µM (active).

Broadly, the IC50 is the concentration needed to halve the response being measured.
